Measurements reported in PubChem BioAssay AID2060894 (Molecular Pharmacology Branch, DTP, NCI, 2025).
Blank lines part the entries; values can stand above or below the molecule they belong to.

Tested on: K12877-001-R-J1-PDC complex spheroid viability
Assay: Anticancer human tumor K12877-001-R-J1-PDC patient-derived lung adenocarcinoma cell line growth inhibition [RAS]
Conditions: for IC50: curve of first compound; for viability, T/C: stronger effect = lower value
Method in brief: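 Agents were tested in combination matrices in half-log decrements from a top concentration at or near clinical Cmax (10 microM if undetermined). Targets were multi-cell spheroids of tumour lines plus HUVEC and MSC stromal cells.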

[1] = second compound 0.000949 µM, first compound 0.0316 µM
[2] = second compound 0.000949 µM, first compound 0.1 µM
[3] = second compound 0.000949 µM, first compound 0.316 µM
[4] = second compound 0.000949 µM, first compound 1 µM
[5] = second compound 0.000949 µM, first compound 3.16 µM
[6] = second compound 0.000949 µM, first compound 10 µM
[7] = second compound 0.003 µM, first compound 0.0316 µM
[8] = second compound 0.003 µM, first compound 0.1 µM
[9] = second compound 0.003 µM, first compound 0.316 µM
[10] = second compound 0.003 µM, first compound 1 µM
[11] = second compound 0.003 µM, first compound 3.16 µM
[12] = second compound 0.003 µM, first compound 10 µM
[13] = second compound 0.00949 µM, first compound 0.0316 µM
[14] = second compound 0.00949 µM, first compound 0.1 µM
[15] = second compound 0.00949 µM, first compound 0.316 µM
[16] = second compound 0.00949 µM, first compound 1 µM
[17] = second compound 0.00949 µM, first compound 3.16 µM
[18] = second compound 0.00949 µM, first compound 10 µM
[19] = second compound 0.03 µM, first compound 0.0316 µM
[20] = second compound 0.03 µM, first compound 0.1 µM
[21] = second compound 0.03 µM, first compound 0.316 µM
[22] = second compound 0.03 µM, first compound 1 µM
[23] = second compound 0.03 µM, first compound 3.16 µM
[24] = second compound 0.03 µM, first compound 10 µM
[25] = second compound 0.0949 µM, first compound 0.0316 µM
[26] = second compound 0.0949 µM, first compound 0.1 µM
[27] = second compound 0.0949 µM, first compound 0.316 µM
[28] = second compound 0.0949 µM, first compound 1 µM
[29] = second compound 0.0949 µM, first compound 3.16 µM
[30] = second compound 0.0949 µM, first compound 10 µM
[31] = second compound 0.3 µM, first compound 0.0316 µM
[32] = second compound 0.3 µM, first compound 0.1 µM
[33] = second compound 0.3 µM, first compound 0.316 µM
[34] = second compound 0.3 µM, first compound 1 µM
[35] = second compound 0.3 µM, first compound 3.16 µM
[36] = second compound 0.3 µM, first compound 10 µM
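Also: spheroids exposed to agents for one week before readout.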
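For viability, T/C in this document: tumour cells co-cultured with HUVEC and mesenchymal stem cells in spheroids.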

IC50 (second compound 0.000949 µM): 1260 nM
IC50 (second compound 0.003 µM): 1280 nM
IC50 (second compound 0.00949 µM): 1430 nM
IC50 (second compound 0.03 µM): 956 nM
IC50 (second compound 0.0949 µM): 488 nM
IC50 (second compound 0.3 µM): 170 nM
Structure (SMILES): CC(C)NCC(C(=O)N1CCN(c2ncnc3c2C(C)CC3O)CC1)c1ccc(Cl)cc1 (stereo not drawn) + CCn1c(-c2cccnc2C(C)OC)c2c3cc(ccc31)N1CCOC(CC(NC(=O)C(C(C)C)N(C)C(=O)C3(F)CCN(C(=O)C#CC(C)(C)N(C)C)CC3)C(=O)N3CCCC(N3)C(=O)OCC(C)(C)C2)C1
viability, T/C [1]: 88.5%
viability, T/C [2]: 76.6%
viability, T/C [3]: 80.5%
viability, T/C [4]: 55.5%
viability, T/C [5]: 26.7%
viability, T/C [6]: 18.3%
viability, T/C [7]: 80.6%
viability, T/C [8]: 88%
viability, T/C [9]: 67.1%
viability, T/C [10]: 60.6%
viability, T/C [11]: 26.5%
viability, T/C [12]: 19.6%
viability, T/C [13]: 78.5%
viability, T/C [14]: 68.5%
viability, T/C [15]: 82.8%
viability, T/C [16]: 58.7%
viability, T/C [17]: 27.9%
viability, T/C [18]: 16%
viability, T/C [19]: 75.7%
viability, T/C [20]: 68.9%
viability, T/C [21]: 81.6%
viability, T/C [22]: 49%
viability, T/C [23]: 26.8%
viability, T/C [24]: 15.9%
viability, T/C [25]: 72.7%
viability, T/C [26]: 73.5%
viability, T/C [27]: 51.8%
viability, T/C [28]: 41.5%
viability, T/C [29]: 23.1%
viability, T/C [30]: 12.1%
viability, T/C [31]: 57.8%
viability, T/C [32]: 52.8%
viability, T/C [33]: 46.3%
viability, T/C [34]: 23.5%
viability, T/C [35]: 19%
viability, T/C [36]: 10.6%

IC50 (second compound 0.000949 µM): 9.24 nM
IC50 (second compound 0.003 µM): 6.95 nM
IC50 (second compound 0.00949 µM): 8.2 nM
IC50 (second compound 0.03 µM): 6.3 nM
IC50 (second compound 0.0949 µM): 3.56 nM
IC50 (second compound 0.3 µM): 1.37 nM
Structure (SMILES): CC(C)n1nc(-c2ccc3oc(N)nc3c2)c2c(N)ncnc21 + CCn1c(-c2cccnc2C(C)OC)c2c3cc(ccc31)N1CCOC(CC(NC(=O)C(C(C)C)N(C)C(=O)C3(F)CCN(C(=O)C#CC(C)(C)N(C)C)CC3)C(=O)N3CCCC(N3)C(=O)OCC(C)(C)C2)C1
viability, T/C (second compound 0.000949 µM, first compound 0.000316 µM): 81.6%
viability, T/C (second compound 0.000949 µM, first compound 0.001 µM): 81.3%
viability, T/C (second compound 0.000949 µM, first compound 0.00316 µM): 78.2%
viability, T/C (second compound 0.000949 µM, first compound 0.01 µM): 47.4%
viability, T/C [1]: 18.7%
viability, T/C [2]: 11.9%
viability, T/C (second compound 0.003 µM, first compound 0.000316 µM): 77.6%
viability, T/C (second compound 0.003 µM, first compound 0.001 µM): 80.9%
viability, T/C (second compound 0.003 µM, first compound 0.00316 µM): 66.2%
viability, T/C (second compound 0.003 µM, first compound 0.01 µM): 41.8%
viability, T/C [7]: 20.4%
viability, T/C [8]: 11%
viability, T/C (second compound 0.00949 µM, first compound 0.000316 µM): 77.5%
viability, T/C (second compound 0.00949 µM, first compound 0.001 µM): 76.9%
viability, T/C (second compound 0.00949 µM, first compound 0.00316 µM): 63.4%
viability, T/C (second compound 0.00949 µM, first compound 0.01 µM): 50%
viability, T/C [13]: 16.2%
viability, T/C [14]: 8.87%
viability, T/C (second compound 0.03 µM, first compound 0.000316 µM): 69.3%
viability, T/C (second compound 0.03 µM, first compound 0.001 µM): 69.6%
viability, T/C (second compound 0.03 µM, first compound 0.00316 µM): 59.1%
viability, T/C (second compound 0.03 µM, first compound 0.01 µM): 44%
viability, T/C [19]: 18.4%
viability, T/C [20]: 7.89%
viability, T/C (second compound 0.0949 µM, first compound 0.000316 µM): 68.7%
viability, T/C (second compound 0.0949 µM, first compound 0.001 µM): 61.4%
viability, T/C (second compound 0.0949 µM, first compound 0.00316 µM): 50%
viability, T/C (second compound 0.0949 µM, first compound 0.01 µM): 37.8%
viability, T/C [25]: 12.2%
viability, T/C [26]: 7.05%
viability, T/C (second compound 0.3 µM, first compound 0.000316 µM): 65%
viability, T/C (second compound 0.3 µM, first compound 0.001 µM): 53.1%
viability, T/C (second compound 0.3 µM, first compound 0.00316 µM): 39.8%
viability, T/C (second compound 0.3 µM, first compound 0.01 µM): 28.8%
viability, T/C [31]: 12.6%
viability, T/C [32]: 6.48%

IC50 (second compound 0.000949 µM): 931 nM
IC50 (second compound 0.003 µM): 472 nM
IC50 (second compound 0.00949 µM): 312 nM
IC50 (second compound 0.03 µM): 571 nM
IC50 (second compound 0.0949 µM): 172 nM
IC50 (second compound 0.3 µM): 81.7 nM
Structure (SMILES): CC(Nc1ccc2c(c1)OCCn1cc(N3C(=O)OCC3C(F)F)nc1-2)C(N)=O (stereo not drawn) + CCn1c(-c2cccnc2C(C)OC)c2c3cc(ccc31)N1CCOC(CC(NC(=O)C(C(C)C)N(C)C(=O)C3(F)CCN(C(=O)C#CC(C)(C)N(C)C)CC3)C(=O)N3CCCC(N3)C(=O)OCC(C)(C)C2)C1
viability, T/C [1]: 73.5%
viability, T/C [2]: 69.8%
viability, T/C [3]: 55.3%
viability, T/C [4]: 51.5%
viability, T/C [5]: 37.5%
viability, T/C [6]: 19.3%
viability, T/C [7]: 74.8%
viability, T/C [8]: 66.8%
viability, T/C [9]: 48%
viability, T/C [10]: 40.3%
viability, T/C [11]: 44%
viability, T/C [12]: 19.2%
viability, T/C [13]: 76.6%
viability, T/C [14]: 53.7%
viability, T/C [15]: 50.7%
viability, T/C [16]: 43.6%
viability, T/C [17]: 34%
viability, T/C [18]: 22.3%
viability, T/C [19]: 65.8%
viability, T/C [20]: 62.9%
viability, T/C [21]: 55.2%
viability, T/C [22]: 44.8%
viability, T/C [23]: 30.5%
viability, T/C [24]: 16.1%
viability, T/C [25]: 66.8%
viability, T/C [26]: 52%
viability, T/C [27]: 44.6%
viability, T/C [28]: 34.4%
viability, T/C [29]: 28%
viability, T/C [30]: 13.4%
viability, T/C [31]: 65.5%
viability, T/C [32]: 41.2%
viability, T/C [33]: 35.7%
viability, T/C [34]: 28.1%
viability, T/C [35]: 21.8%
viability, T/C [36]: 8.8%

IC50 (second compound 0.000949 µM): > 10000 nM
IC50 (second compound 0.003 µM): > 10000 nM
IC50 (second compound 0.00949 µM): > 10000 nM
IC50 (second compound 0.03 µM): > 10000 nM
IC50 (second compound 0.0949 µM): > 10000 nM
IC50 (second compound 0.3 µM): > 10000 nM
Structure (SMILES): C[C@@H](NC(=O)c1ncnc(N)c1Cl)c1ncc(C(=O)Nc2cc(C(F)(F)F)c(Cl)cn2)s1 + CCn1c(-c2cccnc2C(C)OC)c2c3cc(ccc31)N1CCOC(CC(NC(=O)C(C(C)C)N(C)C(=O)C3(F)CCN(C(=O)C#CC(C)(C)N(C)C)CC3)C(=O)N3CCCC(N3)C(=O)OCC(C)(C)C2)C1
viability, T/C [1]: 84.5%
viability, T/C [2]: 84.7%
viability, T/C [3]: 77.3%
viability, T/C [4]: 85.3%
viability, T/C [5]: 74.4%
viability, T/C [6]: 82.7%
viability, T/C [7]: 80.2%
viability, T/C [8]: 79.2%
viability, T/C [9]: 72.6%
viability, T/C [10]: 82%
viability, T/C [11]: 91.2%
viability, T/C [12]: 76.8%
viability, T/C [13]: 84.3%
viability, T/C [14]: 74.9%
viability, T/C [15]: 72%
viability, T/C [16]: 73.4%
viability, T/C [17]: 81.3%
viability, T/C [18]: 78.8%
viability, T/C [19]: 80.3%
viability, T/C [20]: 81.1%
viability, T/C [21]: 71.3%
viability, T/C [22]: 88.2%
viability, T/C [23]: 89.9%
viability, T/C [24]: 87.5%
viability, T/C [25]: 79.5%
viability, T/C [26]: 77.8%
viability, T/C [27]: 78.4%
viability, T/C [28]: 75.3%
viability, T/C [29]: 89.7%
viability, T/C [30]: 72%
viability, T/C [31]: 72%
viability, T/C [32]: 71.7%
viability, T/C [33]: 64.3%
viability, T/C [34]: 69.8%
viability, T/C [35]: 69.3%
viability, T/C [36]: 52.9%
